For data set [1] the following is noted: conjugate acid of weak base; cited from earlier work.
A short description of data set [2]: pKa values of compounds of benzene sulfonic acid. It is filed as physicochemical. As to the method:
Generally, there are two ways for preparing acid into sodium salt. One is exchange using cationic resin; the other is via adjusting pH value. Virtually, preparing sodium salt by adjusting pH value is a process of neutralization reaction between acid and base. It includes two types of reactions, i.e. the reaction between strong acid and strong base, and the reaction between […]. If strong base solution is added into strong acid solution for adjusting pH value, there is a sharp change in the pH value of the solution (the change of pH value is illustrated in FIG. 6), and the pH value will be instantly altered by 8. Therefore in the practical production, it is hard to control the pH value and a slightest mistake could lead to an overregulated pH value. In WO2004014879, a 0.1 mol/L NaOH solution was used to adjust pH value to 6-8 for obtaining formula II compound. It was actually a reaction between strong acid and strong base. […] Therefore, theoretically, the method using NaOH solution to adjust pH values for obtaining sodium salt is unsuitable for preparation of formula II compound.

The nature of data set [3]: pH adjustment of formula I compound with 0.1 mol/L NaOH solution, HPLC. It counts as physicochemical. To be noted: pH adjusted with 0.1 mol/L NaOH solution added dropwise. As to the method: The inventors have repeated the method reported in WO2004014879 for multiple times and analyzed and validated the reported method from the point of view of local pH value.
The method for measuring HPLC purity of Formula I compound is shown as follows.
HPLC analytical column: YMC-ODS 250×4.6 mm, 5 μm
Mobile phase: acetonitrile: phosphate buffer (pH 3.0)=[…]
Column temperature: 35±5° C.
Dilution: phosphate buffer in water
Wave length detected: 210 nm
Volume of sample injection: 10 μl
Retention time of the main peak: approx. 18 min.
According to the purification process for micafungin in WO2004014879, ion exchange was applied to 0.5 g of compound of formula I by using 50 ml of cation exchange resin UBK510L. The product was sampled and analyzed. HPLC purity was determined as 99.54%. […] The product was sampled and analyzed. HPLC purity was determined as 98.01% (See FIG. 2). […] The produce was sampled and analyzed. HPLC purity was determined as 97.90%. […] The product was sampled and analyzed. HPLC purity was determined as 97.81%. […] The product was sampled and analyzed. HPLC purity was determined as 97.75%. […] The product was sampled and analyzed. HPLC purity was determined as 97.67%. […] The product was sampled and analyzed. HPLC purity was determined as 97.59%. […] The product was sampled and analyzed.

Where two headings read alike, the source gives them in different places. Marks after values point to notes of the source that are not given here. Numbered stars: 1 amine (or outer) side, 2 acyl side, 3 side chain; on linkers, the order of the positions; unused ones are H or OH. Bridge positions count the residues as written; N and C are the ends. Square brackets hold non-standard residues; d marks the D form. Peptide text beside a SMILES is read from it. * marks the point of attachment. hTyr(3S-OH,4S-OH,3'-OSO3H) = N[C@H](C(=O)O)[C@H](O)[C@@H](O)c1ccc(O)c(OS(=O)(=O)O)c1; Orn(4R-OH,5R-OH) = O=C([C@H](C[C@@H](O)[C@@H](O)N[*:3])N[*:1])[*:2]; Pro(3S-OH,4S-Me) = C[C@H]1CN[C@H](C(=O)O)[C@H]1O; X1 = CCCCCOc1ccc(-c2cc(-c3ccc(C(=O)*)cc3)no2)cc1; Gln(3R-OH) = NC(=O)C[C@@H](O)[C@H](N)C(=O)O; Hyp = O=C(O)[C@@H]1C[C@@H](O)CN1

As for `S` [hydrosulfuric acid], in data set [1], the pKa1 was 6.88 and the pKa2 is on record as 14.15^a.
Regarding `O=C(O)CC(O)C(=O)O` (centres unmarked) [malic acid], in data set [1], the pKa1 was 3.40^a and the pKa2 is listed as 5.13.
Consider `C/C=C/C=C/C(=O)O` [sorbic acid], for which, in data set [1], the pKa1 was 4.76.
By pKa is commonly meant the pH at which an ionisable group is half protonated. In turn, `CCCCCOc1ccc(-c2cc(-c3ccc(C(=O)N[C@H]4C[C@@H](O)[C@@H](O)NC(=O)[C@@H]5[C@@H](O)[C@@H](C)CN5C(=O)[C@H]([C@H](O)CC(N)=O)NC(=O)[C@H]([C@H](O)[C@@H](O)c5ccc(O)c(OS(=O)(=O)O)c5)NC(=O)[C@@H]5C[C@@H](O)CN5C(=O)[C@H]([C@@H](C)O)NC4=O)cc3)no2)cc1` [micafungin, Micafungin] (X1-[Orn(4R-OH,5R-OH)]T[Hyp][hTyr(3S-OH,4S-OH,3'-OSO3H)][Gln(3R-OH)][Pro(3S-OH,4S-Me)]; lactam 1-C) yielded a pKa in data set [2] below 1. Also, in data set [3], the “degradation after pH adjustment (HPLC)” value is “obvious degradation”. Further, the stability in solution entry runs as follows: (pH 4.0-6.0) “more stable”; (pH 4.0-7.0) “stability is good”; (pH 4.5-5.5) “most stable”; (pH of solution adjusted to 7) “no obvious degradation”; (solution with high pH value) “poor stability”.
For the compound `OB(O)O` [boric acid], in data set [1], the pKa1 was 9.24, the pKa2 is recorded as 12.74^a and the pKa3 is 13.80^a.
As to `O=S(O)O` [sulfurous acid], in data set [1], the pKa1 is reported as 1.90^a and the pKa2 is 7.20.

Source of the values: patent US9115177B2, “Preparation method of micafungin sodium” (Shanghai Techwell Biopharmaceutical Co., Ltd., priority 2011, dated 2015).
